ChEMBL document CHEMBL3046832, “Synthesis of some sulfonamides, disubstituted sulfonylureas or thioureas and some structurally related variants. A class of promising antitumor agents” (2007)

What was measured:
Format in all cases: functional
[1] = tested on: MDA-MB-435; test: Cytotoxicity against Homo sapiens (human) MDA-MB-435 cells after 48 hr by SRB assay; conditions: MDA-MB-435, 48 h
[2] = tested on: M14; test: Cytotoxicity against Homo sapiens (human) M14 cells after 48 hr by SRB assay; conditions: M14, 48 h
[3] = tested on: U-251; test: Cytotoxicity against Homo sapiens (human) U251 cells after 48 hr by SRB assay; conditions: U-251, 48 h
[4] = tested on: SNB-75; test: Cytotoxicity against Homo sapiens (human) SNB75 cells after 48 hr by SRB assay; conditions: SNB-75, 48 h
[5] = tested on: MCF7; test: Cytotoxicity against Homo sapiens (human) MCF7 cells after 48 hr by SRB assay; conditions: MCF7, 48 h
[6] = tested on: MDA-MB-231; test: Cytotoxicity against Homo sapiens (human) MDA-MB-231 cells after 48 hr by SRB assay; conditions: MDA-MB-231, 48 h
[7] = tested on: DU-145; test: Cytotoxicity against Homo sapiens (human) DU145 cells after 48 hr by SRB assay; conditions: DU-145, 48 h
[8] = tested on: UO-31; test: Cytotoxicity against Homo sapiens (human) UO31 cells after 48 hr by SRB assay; conditions: UO-31, 48 h
[9] = tested on: RXF 393; test: Cytotoxicity against Homo sapiens (human) RXF393 cells after 48 hr by SRB assay; conditions: RXF 393, 48 h
[10] = tested on: CAKI-1; test: Cytotoxicity against Homo sapiens (human) Caki1 cells after 48 hr by SRB assay; conditions: CAKI-1, 48 h
[11] = tested on: 786-0; test: Cytotoxicity against Homo sapiens (human) 786-0 cells after 48 hr by SRB assay; conditions: 786-0, 48 h
[12] = tested on: SK-OV-3; test: Cytotoxicity against Homo sapiens (human) SKOV3 cells after 48 hr by SRB assay; conditions: SK-OV-3, 48 h
[13] = tested on: OVCAR-8; test: Cytotoxicity against Homo sapiens (human) OVCAR8 cells after 48 hr by SRB assay; conditions: OVCAR-8, 48 h
[14] = tested on: OVCAR-5; test: Cytotoxicity against Homo sapiens (human) OVCAR5 cells after 48 hr by SRB assay; conditions: OVCAR-5, 48 h
[15] = tested on: OVCAR-4; test: Cytotoxicity against Homo sapiens (human) OVCAR4 cells after 48 hr by SRB assay; conditions: OVCAR-4, 48 h
[16] = tested on: IGROV-1; test: Cytotoxicity against Homo sapiens (human) IGROV1 cells after 48 hr by SRB assay; conditions: IGROV-1, 48 h
[17] = tested on: UACC-62; test: Cytotoxicity against Homo sapiens (human) UACC62 cells after 48 hr by SRB assay; conditions: UACC-62, 48 h
[18] = tested on: UACC-257; test: Cytotoxicity against Homo sapiens (human) UACC257 cells after 48 hr by SRB assay; conditions: UACC-257, 48 h
[19] = tested on: SK-MEL-28; test: Cytotoxicity against Homo sapiens (human) SK-MEL-28 cells after 48 hr by SRB assay; conditions: SK-MEL-28, 48 h
[20] = Cytotoxicity against Homo sapiens (human) prostate cancer cells after 48 hr by SRB assay; conditions: Cancer cell lines
[21] = Cytotoxicity against Homo sapiens (human) renal cancer cells after 48 hr by SRB assay; conditions: Cancer cell lines
[22] = Cytotoxicity against Homo sapiens (human) ovarian cancer cells after 48 hr by SRB assay; conditions: Cancer cell lines
[23] = Cytotoxicity against Homo sapiens (human) melanoma cells after 48 hr by SRB assay; conditions: Melanoma cell
[24] = Cytotoxicity against Homo sapiens (human) colon cancer cells after 48 hr by SRB assay; conditions: Cancer cell lines
[25] = Cytotoxicity against Homo sapiens (human) non-small cell lung cancer cells after 48 hr by SRB assay; conditions: Cancer cell lines
[26] = tested on: NCI-H460; test: Cytotoxicity against Homo sapiens (human) NCI-H460 cells assessed as cellular growth after 48 hr by Alamar blue assay; design: concentration or dose not given beside the values
[27] = Cytotoxicity against Homo sapiens (human) leukemia cells after 48 hr by SRB assay; conditions: Leukemia cell
[28] = tested on: SF-268; test: Cytotoxicity against Homo sapiens (human) SF268 cells assessed as cellular growth after 48 hr by Alamar blue assay; design: concentration or dose not given beside the values
[29] = tested on: T47D; test: Cytotoxicity against Homo sapiens (human) T47D cells after 48 hr by SRB assay
[30] = tested on: SF-295; test: Cytotoxicity against Homo sapiens (human) SF295 cells after 48 hr by SRB assay; conditions: SF-295, 48 h
[31] = tested on: SW-620; test: Cytotoxicity against Homo sapiens (human) SW620 cells after 48 hr by SRB assay; conditions: SW-620, 48 h
[32] = tested on: KM12; test: Cytotoxicity against Homo sapiens (human) KM12 cells after 48 hr by SRB assay; conditions: KM12, 48 h
[33] = tested on: HCT-15; test: Cytotoxicity against Homo sapiens (human) HCT15 cells after 48 hr by SRB assay; conditions: HCT-15, 48 h
[34] = tested on: HT-29; test: Cytotoxicity against Homo sapiens (human) HT-29 cells after 48 hr by SRB assay; conditions: HT-29, 48 h
[35] = tested on: HCC 2998; test: Cytotoxicity against Homo sapiens (human) HCC2998 cells after 48 hr by SRB assay; conditions: HCC 2998, 48 h
[36] = tested on: NCI-H522; test: Cytotoxicity against Homo sapiens (human) NCI-H522 cells after 48 hr by SRB assay; conditions: NCI-H522, 48 h
[37] = tested on: COLO 205; test: Cytotoxicity against Homo sapiens (human) COLO205 cells after 48 hr by SRB assay; conditions: COLO 205, 48 h
[38] = tested on: NCI-H23; test: Cytotoxicity against Homo sapiens (human) NCI-H23 cells after 48 hr by SRB assay; conditions: NCI-H23, 48 h
[39] = tested on: NCI-H460; test: Cytotoxicity against Homo sapiens (human) NCI-H460 cells after 48 hr by SRB assay; conditions: NCI-H460, 48 h
[40] = tested on: HOP-92; test: Cytotoxicity against Homo sapiens (human) HOP92 cells after 48 hr by SRB assay; conditions: HOP-92, 48 h
[41] = tested on: EKVX; test: Cytotoxicity against Homo sapiens (human) EKVX cells after 48 hr by SRB assay
[42] = tested on: HOP-62; test: Cytotoxicity against Homo sapiens (human) HOP62 cells after 48 hr by SRB assay; conditions: HOP-62, 48 h
[43] = tested on: A549; test: Cytotoxicity against Homo sapiens (human) A549 cells after 48 hr by SRB assay; conditions: A549, 48 h
[44] = tested on: MOLT-4; test: Cytotoxicity against Homo sapiens (human) MOLT4 cells after 48 hr by SRB assay; conditions: MOLT-4, 48 h
[45] = tested on: CCRF-CEM; test: Cytotoxicity against Homo sapiens (human) CCRF-CEM cells after 48 hr by SRB assay
[46] = tested on: MCF7; test: Cytotoxicity against Homo sapiens (human) MCF7 cells assessed as cellular growth after 48 hr by Alamar blue assay; design: concentration or dose not given beside the values

Compound: O=C1CS/C(=N\S(=O)(=O)c2ccc(N3N=C4c5ccccc5CC4C3c3cccs3)cc2)N1C(=O)c1ccccc1 (centres undefined)
- GI50 [1]: 37.4 µM
- GI50 [2]: 44.7 µM
- GI50 [3]: 36.3 µM
- GI50 [4]: > 100 µM
- GI50 [5]: > 100 µM
- GI50 [6]: 44.6 µM
- GI50 [7]: 38.2 µM
- GI50 [8]: > 100 µM
- GI50 [9]: 63.9 µM
- GI50 [10]: 39 µM
- GI50 [11]: 48.8 µM
- GI50 [12]: > 100 µM
- GI50 [13]: 45.7 µM
- GI50 [14]: 32.2 µM
- GI50 [15]: > 100 µM
- GI50 [16]: 28.3 µM
- GI50 [17]: 23.2 µM
- GI50 [18]: > 100 µM
- GI50 [19]: > 100 µM
- GI50 [20]: 38.1 µM
- TGI [20]: > 100 µM
- GI50 [21]: 59.4 µM
- TGI [21]: 99.1 µM
- GI50 [22]: 60.9 µM
- TGI [22]: > 100 µM
- GI50 [23]: 73.3 µM
- TGI [23]: > 100 µM
- GI50 [24]: 40.4 µM
- TGI [24]: 79.8 µM
- GI50 [25]: 49.3 µM
- TGI [25]: 85.9 µM
- Activity [26]: <=32%
- GI50 [27]: 31.2 µM
- TGI [27]: 84.5 µM
- Activity [28]: <=32%
- GI50 [29]: > 100 µM
- GI50 [30]: 31.7 µM
- GI50 [31]: 38.5 µM
- GI50 [32]: 21.4 µM
- GI50 [33]: 56.3 µM
- GI50 [34]: 76 µM
- GI50 [35]: 17.6 µM
- GI50 [36]: 60.1 µM
- GI50 [37]: 51 µM
- GI50 [38]: 25.1 µM
- GI50 [39]: > 100 µM
- GI50 [40]: 37.3 µM
- GI50 [41]: 42.4 µM
- GI50 [42]: 32.9 µM
- GI50 [43]: 70.5 µM
- GI50 [44]: 22.2 µM
- GI50 [45]: 37.5 µM
- Activity [46]: <=32%

Compound: O=C(c1ccccc1)n1c(-c2ccccc2)cs/c1=N\S(=O)(=O)c1ccc(N2N=C3c4ccccc4CC3C2c2cccs2)cc1 (centres undefined)
- GI50 [1]: 31.1 µM
- GI50 [2]: 33 µM
- GI50 [3]: 32 µM
- GI50 [4]: > 100 µM
- GI50 [5]: > 100 µM
- GI50 [6]: 41.3 µM
- GI50 [7]: 47 µM
- GI50 [8]: 98.1 µM
- GI50 [9]: 37 µM
- GI50 [10]: 38 µM
- GI50 [11]: 21.8 µM
- GI50 [12]: > 100 µM
- GI50 [13]: 42.9 µM
- GI50 [14]: 34.3 µM
- GI50 [15]: > 100 µM
- GI50 [16]: > 100 µM
- GI50 [17]: 27.3 µM
- GI50 [18]: 45.7 µM
- GI50 [19]: > 100 µM
- GI50 [20]: 43.1 µM
- TGI [20]: > 100 µM
- GI50 [21]: 44.8 µM
- TGI [21]: 95.3 µM
- GI50 [22]: 72 µM
- TGI [22]: > 100 µM
- GI50 [23]: 51.6 µM
- TGI [23]: 98.2 µM
- GI50 [24]: 53.3 µM
- TGI [24]: 90.4 µM
- GI50 [25]: 43.7 µM
- TGI [25]: 83.9 µM
- Activity [26]: <=32%
- GI50 [27]: 32.9 µM
- TGI [27]: 80.3 µM
- Activity [28]: <=32%
- GI50 [29]: > 100 µM
- GI50 [30]: 37.1 µM
- GI50 [31]: 58.8 µM
- GI50 [32]: 38.3 µM
- GI50 [33]: 61.4 µM
- GI50 [34]: 73.3 µM
- GI50 [35]: 14 µM
- GI50 [36]: 23.7 µM
- GI50 [37]: 98.1 µM
- GI50 [38]: 13.1 µM
- GI50 [39]: > 100 µM
- GI50 [40]: > 100 µM
- GI50 [41]: 40.7 µM
- GI50 [42]: 23.7 µM
- GI50 [43]: 39.5 µM
- GI50 [44]: 30.5 µM
- GI50 [45]: 41.3 µM
- Activity [46]: <=32%

Compound: O=C1CCS/C(=N\S(=O)(=O)c2ccc(N3N=C4c5ccccc5CC4C3c3cccs3)cc2)N1C(=O)c1ccccc1 (centres undefined)
- GI50 [1]: 22.7 µM
- GI50 [2]: 10.8 µM
- GI50 [3]: 4.5 µM
- GI50 [4]: > 100 µM
- GI50 [5]: 9.1 µM
- GI50 [6]: 5.77 µM
- GI50 [7]: 23.2 µM
- GI50 [8]: 30.7 µM
- GI50 [9]: 6.31 µM
- GI50 [10]: 26.8 µM
- GI50 [11]: 14.1 µM
- GI50 [12]: 52.8 µM
- GI50 [13]: 0.81 µM
- GI50 [14]: 25.8 µM
- GI50 [15]: > 100 µM
- GI50 [16]: 14.5 µM
- GI50 [17]: 6.37 µM
- GI50 [18]: 0.33 µM
- GI50 [19]: 50.2 µM
- GI50 [20]: 26.2 µM
- TGI [20]: > 100 µM
- GI50 [21]: 17.7 µM
- TGI [21]: 38.1 µM
- GI50 [22]: 36.9 µM
- TGI [22]: 42.1 µM
- GI50 [23]: 15.3 µM
- TGI [23]: 21.2 µM
- GI50 [24]: 27.4 µM
- TGI [24]: 52.6 µM
- GI50 [25]: 21.7 µM
- TGI [25]: 71.4 µM
- Activity [26]: <=32%
- GI50 [27]: 37.6 µM
- TGI [27]: 80.1 µM
- Activity [28]: <=32%
- GI50 [29]: > 100 µM
- GI50 [30]: 32.7 µM
- GI50 [31]: 13.1 µM
- GI50 [32]: 29.4 µM
- GI50 [33]: 15.1 µM
- GI50 [34]: 39.6 µM
- GI50 [35]: 18.2 µM
- GI50 [36]: 14.4 µM
- GI50 [37]: 66.5 µM
- GI50 [38]: 17.2 µM
- GI50 [39]: 26.6 µM
- GI50 [40]: 25.4 µM
- GI50 [41]: 22.1 µM
- GI50 [42]: 31.1 µM
- GI50 [43]: 10.6 µM
- GI50 [44]: 50.4 µM
- GI50 [45]: 15 µM
- Activity [46]: <=32%
